{
  "source": "paper PMC5225183",
  "about": "“Fingerprinting of neurotoxic compounds using a mouse embryonic stem cell dual luminescence reporter assay” (Archives of Toxicology, 2016)",
  "key": {"[1]": {"tested_on": "ESCs and ESC-derived neurons", "experiment": "Dual luminescence reporter test system, all readouts in ESCs and ESC-derived neurons", "method_in_brief": "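CGR8-2Luc mouse ESCs (dual reporter: Tα1-FLuc neural, EF1α-RLuc general) exposed 48 h after 24 h plating; ESC-derived neurons re-plated day 5 in N2/bFGF medium. Luciferase normalized to DMSO controls; PI (50 µg/ml, 2 h) measured DNA content as cytotoxicity. Curves scored by ≥30% significant change (ANOVA/Dunnett).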"}, "[2]": {"tested_on": "Tubulin α1 (Tα1) promoter", "experiment": "cells", "method_in_brief": "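Mouse CGR8 ESCs carrying Tα1-firefly and EF1α-Renilla luciferase reporters, treated either undifferentiated (48 h exposure after 24 h plating) or as MS5-induced neurons (exposure day 6 to day 8). Dual-luciferase luminescence expressed as % promoter activity versus DMSO control wells; 5 µM methylmercury as positive control.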"}, "[3]": {"details": "ESC-derived neurons, 48 h exposure"}, "[4]": {"details": "ESCs and neurons, FLuc, RLuc, PI"}, "[5]": {"details": "reporter activity changes in the non-cytotoxic concentration range, highest possible number 4"}},
  "note": "Entries after “also recorded” stand apart in the source; their conditions may differ. Like-named read-outs stand apart in the source and are kept apart here.",
  "data": [
    {"molecule": "C[C@]12CC[C@H](O)CC1=CC[C@@H]1[C@@H]2CC[C@]2(C)C(c3cccnc3)=CC[C@@H]12", "note": "[Abiraterone]", "values": [
      {"measurement": "Number of non-cytotoxic changes", "setting": "[1]; mouse, 48 h", "value": 1},
      {"measurement": "concentration up to which no cytotoxicity in the PI assay", "setting": "[1]; mouse, 48 h", "value": "> 100", "unit": "µM"},
      {"measurement": "LOAEL Neurons Tα1", "setting": "[2]; [3]", "value": 1, "unit": "µM"}
    ]},
    {"molecule": "O=C(/C=C/c1cccc(S(=O)(=O)Nc2ccccc2)c1)NO", "note": "[Belinostat]", "values": [
      {"measurement": "Number of non-cytotoxic changes", "setting": "[1]; mouse, 48 h", "value": 1},
      {"measurement": "LOAEL Neurons Tα1", "setting": "[2]; [3]", "value": 0.0005, "unit": "µM"}
    ]},
    {"molecule": "Nc1ccccc1NC(=O)c1ccc(CNC(=O)OCc2cccnc2)cc1", "note": "[Entinostat]", "values": [
      {"measurement": "Number of non-cytotoxic changes", "setting": "[1]; mouse, 48 h", "value": 1},
      {"measurement": "LOAEL Neurons Tα1", "setting": "[2]; [3]", "value": 0.5, "unit": "µM"}
    ]},
    {"molecule": "COc1cc2ncnc(Nc3ccc(F)c(Cl)c3)c2cc1OCCCN1CCOCC1", "note": "[Gefitinib]", "values": [
      {"measurement": "Number of non-cytotoxic changes", "setting": "[1]; mouse, 48 h", "value": 0},
      {"measurement": "LOAEL Neurons Tα1", "setting": "[2]; [3]", "value": 50, "unit": "µM"}
    ]},
    {"molecule": "COC1=C2C[C@@H](C)C[C@H](OC)[C@H](O)[C@@H](C)/C=C(\\C)[C@H](OC(N)=O)[C@@H](OC)/C=C\\C=C(/C)C(=O)NC(=CC1=O)C2=O", "note": "[Geldanamycin]", "values": [
      {"measurement": "result in the dual luminescence reporter test system", "setting": "[1]", "value": "considerable cytotoxicity"},
      {"measurement": "EC20", "setting": "[1]; in vitro system (neurons and ESCs)", "value": "1 to 10", "unit": "nM"},
      {"measurement": "Number of non-cytotoxic changes", "setting": "[1]; mouse, 48 h", "value": 1},
      {"measurement": "LOAEL Neurons Tα1", "setting": "[2]; [3]", "value": 0.05, "unit": "µM"}
    ]},
    {"molecule": "[Br][Hg][Br]", "note": "[Mercury bromide]", "values": [
      {"measurement": "Number of non-cytotoxic changes", "setting": "[1]", "value": 1},
      {"measurement": "LOAEL Neurons Tα1", "setting": "[2]; [3]", "value": 10, "unit": "µM"}
    ]},
    {"molecule": "COCC(=O)O", "note": "[Methoxyacetic acid]", "values": [
      {"measurement": "result in the dual luminescence reporter test system", "setting": "[1]; [4]", "value": "very weak signal; also recorded: relatively weak signal"},
      {"measurement": "Number of non-cytotoxic changes", "setting": "[1]; [5]", "value": 1},
      {"measurement": "LOAEL Neurons Tα1", "setting": "[2]; [3]", "value": 50, "unit": "µM"},
      {"measurement": "inhibition at 50 µM", "setting": "[2]; Mus musculus, Neuron, read-out: inhibition of neuronal promoter activity", "value": "~40", "unit": "%"}
    ]},
    {"molecule": "[CH3][Hg][Cl]", "note": "[Methylmercury]", "values": [
      {"measurement": "Number of non-cytotoxic changes", "setting": "[1]; [5]", "value": 1},
      {"measurement": "LOAEL Neurons Tα1", "setting": "[2]; [3]", "value": 0.05, "unit": "µM"}
    ]},
    {"molecule": "COC(=O)c1ccc2c(c1)NC(=O)/C2=C(\\Nc1ccc(N(C)C(=O)CN2CCN(C)CC2)cc1)c1ccccc1", "note": "[Nintedanib]", "values": [
      {"measurement": "Number of non-cytotoxic changes", "setting": "[1]; mouse, 48 h", "value": 2},
      {"measurement": "LOAEL Neurons Tα1", "setting": "[2]; [3]", "value": 0.05, "unit": "µM"}
    ]},
    {"molecule": "COc1ccc2[nH]c([S+]([O-])Cc3ncc(C)c(OC)c3C)nc2c1", "note": "(centres unmarked) [Omeprazole]", "values": [
      {"measurement": "result in the dual luminescence reporter test system", "setting": "[1]", "value": "negative"},
      {"measurement": "Number of non-cytotoxic changes", "setting": "[1]; mouse, 48 h", "value": 0},
      {"measurement": "LOAEL Neurons Tα1", "setting": "[2]; [3]", "value": ">50", "unit": "µM"}
    ]},
    {"molecule": "Brc1ccc(Oc2cc(Br)c(Br)cc2Br)c(Br)c1", "note": "[PBDE-99]", "values": [
      {"measurement": "result in the dual luminescence reporter test system", "setting": "[1]; [4]", "value": "potentially neurotoxic"},
      {"measurement": "Number of non-cytotoxic changes", "setting": "[1]; [5]", "value": 1},
      {"measurement": "LOAEL Neurons Tα1", "setting": "[2]; [3]", "value": ">50", "unit": "µM"}
    ]},
    {"molecule": "Cc1[nH]c2ccccc2c1CCNCc1ccc(/C=C/C(=O)NO)cc1", "note": "[Panobinostat]", "values": [
      {"measurement": "result in the dual luminescence reporter test system", "setting": "[1]", "value": "no enhancement of promoter activities under any condition"},
      {"measurement": "Number of non-cytotoxic changes", "setting": "[1]; mouse, 48 h", "value": 1},
      {"measurement": "effect on neural promoter activity in neurons", "setting": "[2]", "value": "inhibited at subnanomolar concentrations"},
      {"measurement": "LOAEL Neurons Tα1", "setting": "[2]; [3]", "value": 0.0005, "unit": "µM"}
    ]},
    {"molecule": "CC(C)NCC(O)COc1cccc2ccccc12", "note": "(centres unmarked) [Propranolol]", "values": [
      {"measurement": "Number of non-cytotoxic changes", "setting": "[1]; mouse, 48 h", "value": 2},
      {"measurement": "LOAEL Neurons Tα1", "setting": "[2]; [3]", "value": 50, "unit": "µM"}
    ]},
    {"molecule": "O=C(NC[C@H]1CN(c2ccc(N3CCOCC3=O)cc2)C(=O)O1)c1ccc(Cl)s1", "note": "[Rivaroxaban]", "values": [
      {"measurement": "Number of non-cytotoxic changes", "setting": "[1]; mouse, 48 h", "value": 0},
      {"measurement": "LOAEL Neurons Tα1", "setting": "[2]; [3]", "value": ">10", "unit": "µM"}
    ]},
    {"molecule": "C/C(O)=C(\\C#N)C(=O)Nc1ccc(C(F)(F)F)cc1", "note": "[Teriflunomide]", "values": [
      {"measurement": "concentration range of various effects", "setting": "[1]", "value": "4 to 40", "unit": "µM"},
      {"measurement": "result in the dual luminescence reporter test system", "setting": "[1]; [4]", "value": "no effects on general promoter activity and/or on PI fluorescence"},
      {"measurement": "Number of non-cytotoxic changes", "setting": "[1]; [5]", "value": 1},
      {"measurement": "effect on neural promoter activity in neurons", "setting": "[2]", "value": "increase"},
      {"measurement": "LOAEL Neurons Tα1", "setting": "[2]; [3]", "value": 50, "unit": "µM"}
    ]},
    {"molecule": "C[CH2][Hg][S]c1ccccc1C(=O)[O-].[Na+]", "note": "[Thimerosal]", "values": [
      {"measurement": "Number of non-cytotoxic changes", "setting": "[1]", "value": 0},
      {"measurement": "LOAEL Neurons Tα1", "setting": "[2]", "value": 0.5, "unit": "µM"}
    ]},
    {"molecule": "O=c1[nH]c(=O)c2[nH]c(=O)[nH]c2[nH]1", "note": "[Uric acid]", "values": [
      {"measurement": "result in the dual luminescence reporter test system", "setting": "[1]; [4]", "value": "negative"},
      {"measurement": "Number of non-cytotoxic changes", "setting": "[1]; [5]", "value": 0},
      {"measurement": "LOAEL Neurons Tα1", "setting": "[2]; [3]", "value": ">50", "unit": "µM"}
    ]},
    {"molecule": "CCCC(CCC)C(=O)O", "note": "[Valproic acid]", "values": [
      {"measurement": "Number of non-cytotoxic changes", "setting": "[1]; mouse, 48 h", "value": 2},
      {"measurement": "LOAEL Neurons Tα1", "setting": "[2]; [3]", "value": 50, "unit": "µM"}
    ]},
    {"molecule": "Erythropoietin: EpoR agonist controlling erythropoiesis and neurogenesis; Peptide/Protein", "values": [
      {"measurement": "Number of non-cytotoxic changes", "setting": "[1]; [5]", "value": 0},
      {"measurement": "LOAEL Neurons Tα1", "setting": "[2]; [3]", "value": ">0.238", "unit": "µM"}
    ]},
    {"molecule": "Oxytocin", "values": [
      {"measurement": "result in the dual luminescence reporter test system", "setting": "[1]; [4]", "value": "did not have any effects"},
      {"measurement": "Number of non-cytotoxic changes", "setting": "[1]; [5]", "value": 0},
      {"measurement": "LOAEL Neurons Tα1", "setting": "[2]; [3]", "value": ">0.1", "unit": "µM"}
    ]},
    {"molecule": "G-CSF: Hormone stimulating granulopoiesis; Peptide/Protein (protein, UniProt P09919 31-207, looked up) Granulocyte …: TPLGPASSLPQSFLLKCLEQVRKIQGDGAALQEKLVSECATYKLCHPEELVLLGHSLGIPWAPLSSCPSQALQLAGCLSQLHSGLFLYQGLLQALEGISPELGPTLDTLQLDVADFATTIWQQMEELGMAPALQPTQGAMPAFASAFQRRAGGVLVASHLQSFLEVSYRVLRHLAQP", "values": [
      {"measurement": "Number of non-cytotoxic changes", "setting": "[1]; [5]", "value": 0},
      {"measurement": "LOAEL Neurons Tα1", "setting": "[2]; [3]", "value": ">0.00266", "unit": "µM"}
    ]}
  ]
}
